# How the values were obtained:
# [1] = Percentage of entrapment of drugs in liposomes, determined by fluorescence after dialysis; assay type: physicochemical; details: liposomes of cardiolipin, phosphatidyl choline, cholesterol, stearylamine-DTPA
# Experimental: For the preparation of liposomes, 6 mg of doxorubicin or daunorubicin was added to 9 mg of cardiolipin solution and evaporated to dryness under N2. To this dried mixture were then added 22.5 mg of phosphatidyl choline, 7.5 mg cholesterol and 3 mg of stearylamine-DTPA. Again, the mixture was evaporated to dryness under N2.
# The dried lipids and doxorubicin or daunorubicin were resuspended in 6 ml of 0.01 M phosphate buffer with 0.85% NaCl, pH 7.4 (PBS). After one-half-hour swelling time, the liposomes were stirred for 15 minutes, followed by sonication (Heat System, Model W-220F) in a fixed temperature bath at 37°C for 90 minutes. The non-entrapped doxorubicin or daunorubicin was separated from liposome-encapsulated drug by extensive dialysis against 0.001 M phosphate buffer with 0.85% NaCl, pH 7.4 at 4°C over a period of 20 hours with at least two changes of buffer solutions (250 ml/ml liposomes). […] The difference in encapsulation of these two drugs relates to their lipophilicity; daunorubicin is more lipophilic than doxorubicin. The liposomes were freshly prepared each day and were diluted with 0.01 M phosphate buffer (PBS) so as to administer doses of doxorubicin or daunorubicin equivalent to doses of free drugs for pharmacological, toxicological and therapeutic studies.
# [2] = system: P388 leukemia; assay: Antitumor studies against P388 leukemia in mice (median survival time, T/c); assay type: in vivo, CDF1 mice; details: 24 hours after i.p. implant of 1x10^6 P388 cells, Treated/Control x 100
# Experimental: To investigate the therapeutic effectiveness of doxorubicin and daunorubicin entrapped in liposomes, antitumor studies were performed against P388 leukemia in CDF1 mice. Groups of ten mice were implanted intraperitoneally with lxl0^6 cells of P388 tumor, and drug treatment was initiated on day one intraperitoneally or intravenously after tumor cell inoculation. Antitumor efficacy was expressed in leukemic animals by the increase in median survival time, in the dose-range used, compared to controls. Dead animals were autopsied and toxicity was established on the basis of macroscopic necropsy findings.
# [3] = Lethal toxicity in normal mice; assay type: in vivo; details: 20 mg/kg intraperitoneally, normal CDF1 mice, by day 10
# Experimental: For comparison of lethal toxicity of free doxorubicin and doxorubicin entrapped in liposomes, normal CDF1 mice were administered a dose of 20 mg/kg intraperitonally. The mice were observed until day 80 post-drug administration. The control mice received blank liposomes representing the same concentration of the lipid used to entrap a dose of 20 mg/kg of doxorubicin. Mice in each group were weighed twice weekly and were observed daily.
# [4] = Plasma levels in mice after i.v. administration of free or liposome-entrapped drug; details: 6 mg/kg i.v.
# Experimental: (§1) Male CDF1 mice weighing 20-25 g were used to evaluate the influence of liposome encapsulation on plasma levels and physiological disposition of daunorubicin and doxorubicin. Free or encapsulated daunorubicin or doxorubicin was administered intravenously via a lateral tail vein at a dose of 6 mg/kg at 2% body weight (0.02 ml/gm). At 5, 15, 30, 60, 120, 240, and 480 minutes and at 24 hours, mice in each group were bled from the orbital sinus. Blood was collected in heparinized tubes and centrifuged at 1500 rpm for 10 minutes. The plasma layer was separated and frozen. Mice were then killed by cervical dislocation, and the liver, kidney, heart, spleen, small intestine and lungs were excised, rinsed in normal saline, and stored at -20°C until assayed.
# (§2) Plasma and tissues were analyzed for drug equivalents by the method of Formelli et al. (Cancer Chemotherapy and Pharmacology, 5, 129-144 (1981)) as modified in the inventor's laboratories. Plasma (0.25 ml) was diluted to 1 ml with distilled water, followed by addition of 0.2 ml of AgN03 (33% wt/vol). Tissues were homogenized in 1 ml of water in a polytron homogenizer. […] The butanol extract was read in a spectrofluorometer at 470 nm excitation and 585 nm emission. Control plasma and tissues obtained from mice treated with blank liposomes were treated the same way and read in the fluorometer to correct for any endogenous fluorescence. […]
# [5] = Tissue disposition (heart, liver, spleen, lungs, kidney, intestine) in mice after i.v. administration; details: doxorubicin 6 mg/kg i.v., CDF1 mice; at 15 minutes
# Experimental: as §1, §2
Compound,efficiency of entrapment in liposomes [1],T/c (%) ([2]; 2 mg/kg i.p.),T/c (%) ([2]; 4 mg/kg i.p.),T/c (%) ([2]; 6 mg/kg i.p.),"T/c (%) ([2]; 6 mg/kg i.p., listed as daunorubicin)",T/c (%) ([2]; 15 mg/kg l.v),T/c (%) ([2]; 20 mg/kg i.v.),T/c (%) ([2]; 15 mg/kg i.p.),T/c (%) ([2]; 20 mg/kg i.p.),mortality [3] [%],peak plasma concentration (doxorubicin) [4] [µg/mL],peak drug concentration in the kidney [5] [µg/gm]
"COc1cccc2c1C(=O)c1c(O)c3c(c(O)c1C2=O)C[C@@](O)(C(C)=O)C[C@@H]3O[C@H]1C[C@H](N)[C@H](O)[C@H](C)O1 [Free Daunorubicin, daunorubicin]",75-85%,145.5,136.4,109.1,109,145.5,154.5,–,–,–,–,–
"COc1cccc2c1C(=O)c1c(O)c3c(c(O)c1C2=O)C[C@@](O)(C(=O)CO)C[C@@H]3O[C@H]1C[C@H](N)[C@H](O)[C@H](C)O1 [Free Doxorubicin, doxorubicin]",65-75%,–,–,–,–,–,–,130,100,100,2.4,41.0

# From patent publication EP0198765A2, “Preparation of liposomes” (GEORGETOWN UNIVERSITY, priority 1985, dated 1986)
